Consider two compounds from publication PMC12664280, “Integrative transcriptomics and peptidomics approach reveals unexpectedly diverse endogenous secretory peptides in Odorrana grahami frog skin” (BMC Biology, 2025).

Common to all, as to assay type: cell-based
Test [1] relates to Staphylococcus aureus ATCC 29213. The test is described as follows: microbe, parasite or virus in culture. How it is done:
(§1) Ranatuerin-2P-OG1 synthesis was performed by Royobiotech Co., Ltd. (Shanghai, China) using solid-phase peptide synthesis. The crude peptide was purified by RP-HPLC and its purity was confirmed to exceed 90% via ESI-MS analysis. Antimicrobial assays with various microbial strains were conducted, including gram-positive Staphylococcus aureus ATCC 29213 and its methicillin-resistant variant (MRSA) CIB 8546, Enterococcus faecalis ATCC 29212, gram-negative Pseudomonas aeruginosa ATCC 27853 and Escherichia coli ATCC 25922, and fungal Candida albicans CCMCC(F) 98001. Bacterial cultures were maintained in cation-adjusted Mueller-Hinton broth (MHB) at 35°C for 16-20 h, whereas fungal cultures were grown in Sabouraud dextrose broth (SDB) at 28°C for 48 h.

Test [2] has as its system Enterococcus faecalis ATCC 29212. The test is described as follows: microbe, parasite or virus in culture. As for the experimental part: as §1
Test [3] relates to Escherichia coli ATCC 25922. Description: microbe, parasite or virus in culture. How it is done:
as §1

Test [4] relates to methicillin-resistant Staphylococcus aureus (MRSA) CIB 8546. The test is described as follows: microbe, parasite or virus in culture. How it is done:
as §1

Test [5] deals with Pseudomonas aeruginosa ATCC 27853. Description: Antimicrobial assay, MIC by broth microdilution. To be noted: ATCC27853, highest test concentration 128 μg/mL, read-out: minimum inhibitory concentration (MIC), Pseudomonas aeruginosa. How it is done: as §1
For orientation: Dilution methods test growth across graded concentrations, often in twofold steps.

In test [6] the test system is Candida albicans CCMCC(F) 98001. How it is done:
as §1

≈ marks a conversion by molar mass, not a printed value. Where a SMILES comes first, the peptide text is derived from it. Bridges are numbered along the chain shown (N, C = ends). Bounds are passed on as bounds.

Consider `CC1(C)S[C@@H]2[C@H](NC(=O)[C@H](N)c3ccccc3)C(=O)N2[C@H]1C(=O)O` [Ampicillin, reference compound], for which the MIC in test [1] (ATCC29213, broth microdilution, Staphylococcus aureus ATCC 29213, read-out: minimum inhibitory concentration (MIC), Staphylococcus aureus) was 1 µg/mL (≈ 2.86 µM); in test [2] (ATCC29212, broth microdilution, Enterococcus faecalis ATCC 29212, read-out: minimum inhibitory concentration (MIC), Enterococcus faecalis), 2 µg/mL (≈ 5.72 µM); in test [3] (ATCC25922, broth microdilution, Escherichia coli ATCC 25922, read-out: minimum inhibitory concentration (MIC), Escherichia coli) it was 8 µg/mL (≈ 22.9 µM); in test [4] (Staphylococcus aureus, broth microdilution, MRSA CIB 8546, read-out: minimum inhibitory concentration (MIC), MRSA), 128 µg/mL (≈ 366 µM); in test [5], over 128 µg/mL.

With `CC[C@H](C)[C@H](NC(=O)[C@H](CCCCN)NC(=O)[C@H](CC(=O)O)NC(=O)[C@H](CCCCN)NC(=O)[C@@H](NC(=O)[C@@H](NC(=O)CNC(=O)[C@H](C)NC(=O)[C@@H](NC(=O)[C@H](CC(N)=O)NC(=O)[C@@H](NC(=O)[C@H](CC(C)C)NC(=O)[C@@H](NC(=O)[C@H](CC(N)=O)NC(=O)[C@H](CC(C)C)NC(=O)[C@@H](NC(=O)[C@@H](NC(=O)[C@H](CC(N)=O)NC(=O)[C@H](CCSC)NC(=O)[C@H](CC(C)C)NC(=O)CN)[C@@H](C)O)C(C)C)C(C)C)[C@@H](C)O)C(C)C)[C@@H](C)O)C(C)C)C(=O)N[C@@H](CCCCN)C(=O)N[C@H]1CSSC[C@@H](C(=O)O)NC(=O)CNC(=O)CNC(=O)[C@H]([C@@H](C)O)NC(=O)[C@H](Cc2ccccc2)NC(=O)[C@H](CCCCN)NC1=O` [ranatuerin-2P-OG1] (H-GLMNTVLNVLTNVAGTVKDKIKCKFTGGC-OH; disulfide 23-29), the “minimum inhibitory concentration (MIC), Candida albicans” value in test [6] was 512 µg/mL (≈ 169 µM). Moreover, in test [1] (ATCC 29213), the “minimum inhibitory concentration (MIC), Staphylococcus aureus” value stood at 64 µg/mL (≈ 21.2 µM). The “minimum inhibitory concentration (MIC), Enterococcus faecalis” value in test [2] (ATCC 29212) came to 256 µg/mL (≈ 84.7 µM). Also, the “minimum inhibitory concentration (MIC), Escherichia coli” value in test [3] (ATCC 25922) was 128 µg/mL (≈ 42.3 µM). In test [4] (methicillin-resistant CIB 8546), the “minimum inhibitory concentration (MIC), MRSA” value worked out at 64 µg/mL (≈ 21.2 µM).
